# Experimental data: article PMC6273394, “Discovery of a New Class of Sortase A Transpeptidase Inhibitors to Tackle Gram-Positive Pathogens: 2-(2-Phenylhydrazinylidene)alkanoic Acids and Related Derivatives” (Molecules, 2016)
# Like-named read-outs stand apart in the source and are kept apart here.
# Key:
# S. aureus SrtA = S. aureus SrtA (Staphylococcus aureus, UniProt Q2FV99); test: biochemical
# S. aureus ATCC 6538 = test: Interference with biofilm formation assay (safranin method); type: cell-based; details: 100 µM compound, 24 h at 37 °C; for inhibition at 100 µM: Staphylococcus aureus, ATCC6538, 24 h, read-out: Percentages of Inhibition of Biofilm Formation S. aureus 6538
# Protocol: (§1) The reference strains S. aureus ATCC 29213, S. aureus ATCC 25923, S. aureus ATCC 6538 and S. epidermidis RP62A were used in the assays.
# (§2) The staphylococcal strains were tested for their ability to form biofilms. Briefly, bacteria were grown in TSB containing 2% glucose overnight at 37 °C in a shaking bath and then diluted 1:200 to a suspension with optical density (OD) of about 0.040 at 570 nm. Polystyrene 24-well tissue culture plates were filled with 1 mL of diluted suspension and incubated for 24 h at 37 °C. The wells were then washed three times with 1 mL of sterile phosphate-buffered saline (PBS) and stained with 1 mL of safranin 0.1% v/v for 1 min. The excess stain was removed by placing the plates under running tap water. Plates were dried overnight in an inverted position at 37 °C. Safranin-stained adherent bacteria in each well were re-dissolved to homogeneity in 1 mL of 30% v/v glacial acetic acid, and the OD was read at 492 nm. Each assay was performed in triplicate and repeated at least twice.
# (§3) The procedure described above was used to evaluate the activity of phenyl-hydrazinylidene-derivatives in the prevention of biofilm formation. Polystyrene 24-well tissue culture plates were filled with 1 mL of diluted bacterial suspension, obtained and diluted as previously described, and a concentration of 100 µM of each compound was directly added to the bacterial suspension at time zero and incubated at 37 °C for 24 h. The wells were then washed and stained with safranin as per the biofilm forming assay. By comparing the average optical density (O.D.) of the growth control wells with the sample wells, the following formula was used to calculate the percentages of inhibition for each concentration of the sample: (2) Inhibition (%)=OD growth control−OD sample/OD growth control×100
# (§4) Each assay was performed in triplicate and assays were repeated at least twice.
# S. epidermidis RP62A = test: as above; type: cell-based; details: 100 µM compound, 24 h at 37 °C; for inhibition at 100 µM: Staphylococcus epidermidis, RP62A, 24 h, read-out: Percentages of Inhibition of Biofilm Formation S. epidermidis RP62A
# Protocol: as §1, §2, §3, §4
# S. aureus ATCC 29213 = test: as above; type: cell-based; details: 100 µM compound, 24 h at 37 °C; for inhibition at 100 µM: Staphylococcus aureus, ATCC29213, 24 h, read-out: Percentages of Inhibition of Biofilm Formation S. aureus 29213
# Protocol: as §1, §2, §3, §4
# S. aureus ATCC 25923 = test: as above; type: cell-based; details: 100 µM compound, 24 h at 37 °C; for inhibition at 100 µM: Staphylococcus aureus, ATCC25923, 24 h, read-out: Percentages of Inhibition of Biofilm Formation S. aureus 25923
# Protocol: as §1, §2, §3, §4
# S. aureus SrtA, sequence (Q2FV99 60-206): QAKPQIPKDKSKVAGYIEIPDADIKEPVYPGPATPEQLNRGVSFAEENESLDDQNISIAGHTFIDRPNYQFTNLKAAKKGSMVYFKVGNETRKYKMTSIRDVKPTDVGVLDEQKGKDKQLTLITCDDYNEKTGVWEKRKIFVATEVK
SMILES,melting point [°C],IC50 (S. aureus SrtA) [µM],inhibition at 100 µM (S. aureus ATCC 6538) [%],inhibition at 100 µM (S. epidermidis RP62A) [%],inhibition at 100 µM (S. aureus ATCC 29213) [%],inhibition at 100 µM (S. aureus ATCC 25923) [%],also measured
CCOC(=O)/C(=N\Nc1ccc(Cl)c(Cl)c1)C(=O)c1ccccc1,96 to 98,–,–,–,–,–,–
"O=C(O)/C(=N\Nc1ccccc1)C(=O)c1ccccc1 [Compound 5g, (2Z)-3-Oxo-3-phenyl-2-(2-phenylhydrazinylidene)propanoic acid]",136 to 138,98,41.9 ± 1.7,23.7 ± 0.7,36.9 ± 1.2,36.8 ± 2.1,–
"O=C(O)/C(=N\Nc1ccc(Cl)c(Cl)c1)C(=O)c1ccccc1 [Compound 5h, (2Z)-3-Oxo-2-(2-(3,4-dichlorophenyl)hydrazinylidene)-3-phenylpropanoic acid]",202 to 204,100,70.1 ± 2.1,45.4 ± 1.6,42.7 ± 3.7,55.9 ± 2.6,–
"CC(=O)/C(=N/Nc1cccc(Cl)c1)C(=O)O [Compound 5c, (2Z)-3-Oxo-2-(2-(3-chlorophenyl)hydrazinylidene)butanoic acid]",–,87,30.3 ± 0.4,22.9 ± 1.3,69 ± 4.6,41.1 ± 0.7,–
"CC(=O)/C(=N/Nc1ccccc1)C(=O)O [Compound 5a, (2Z)-3-Oxo-2-(2-phenylhydrazinylidene)butanoic acid]",–,80,~60,~60,~60,~60,Percentages of Inhibition of Biofilm Formation S. aureus 6538 (S. aureus ATCC 6538; 100 µM): 60.1 ± 1.7%; Percentages of Inhibition of Biofilm Formation S. epidermidis RP62A (S. epidermidis RP62A; 100 µM): 61.5 ± 1.2%; Percentages of Inhibition of Biofilm Formation S. aureus 29213 (S. aureus ATCC 29213; 100 µM): 62.3 ± 1.5%; Percentages of Inhibition of Biofilm Formation S. aureus 25923 (S. aureus ATCC 25923; 100 µM): 68.3 ± 2.0%
"CC(=O)/C(=N/Nc1ccc(C)cc1)C(=O)O [Compound 5f, (2Z)-3-Oxo-2-(2-(4-methylphenyl)hydrazinylidene)butanoic acid]",–,100,40.3 ± 1.9,24.4 ± 0.9,40.8 ± 2.1,33.8 ± 2.7,–
"CCOC(=O)/C(=N/Nc1ccc(Cl)c(Cl)c1)C(C)=O [Compound 1b, Ethyl (2E)-3-Oxo-2-(2-(3,4-dichlorophenyl)hydrazinylidene)butanoate]",100 to 102,> 500,–,–,–,–,–
"CCOC(=O)/C(=N/Nc1ccccc1)C(C)=O [Compound 1a, Ethyl (2E)-3-Oxo-2-(2-phenylhydrazinylidene)butanoate]",78 to 80,192,–,–,–,–,–
"COc1ccc2cc3[n+](cc2c1OC)CCc1cc2c(cc1-3)OCO2 [BC, Berberine chloride, reference compound]",–,120,–,–,–,–,–
"CCOC(=O)/C(=N/Nc1ccc(C)cc1)C(C)=O [Compound 1f, Ethyl (2E)-3-Oxo-2-(2-(4-methylphenyl)hydrazinylidene)butanoate]",–,> 500,–,–,–,–,–
"CC(=O)/C(=N/Nc1ccc(Cl)c(Cl)c1)C(=O)O [Compound 5b, (2Z)-3-Oxo-2-(2-(3,4-dichlorophenyl)hydrazinylidene)butanoic acid]",–,50,22 ± 0.9,29.1 ± 1.4,71.3 ± 6.4,39.2 ± 1.4,–
"C=CS(=O)(=O)c1ccccc1 [PVS, Phenyl vinyl sulfone, reference compound]",–,–,–,–,–,–,"IC50 (S. aureus SrtA; 10 µM S. aureus sortase A, preincubated 1 h at 37 °C, 50 µM dabcyl-QALPETGEE-edans substrate, read-out: IC50 (activity as sortase A inhibitors)): 736 µM"
"CC(=O)/C(C#N)=N/Nc1ccccc1 [Compound 6a, (2E)-3-Oxo-2-(2-phenylhydrazinylidene)butanenitrile]",–,80,51 ± 0.9,34.8 ± 1.8,46.2 ± 2.3,45.1 ± 2.9,–
"CCOC(=O)/C(=N\Nc1ccccc1)C(=O)c1ccccc1 [Compound 1g, Ethyl (2Z)-3-Oxo-3-phenyl-2-(2-phenylhydrazinylidene)propanoate]",–,–,–,–,–,–,"IC50 (S. aureus SrtA; read-out: IC50 (activity as sortase A inhibitors), 10 µM S. aureus sortase A, preincubated 1 h at 37 °C, 50 µM dabcyl-QALPETGEE-edans substrate): > 500 µM"
"CCOC(=O)/C(=N/Nc1cc(OC)c(OC)c(OC)c1)C(C)=O [Compound 1e, Ethyl (2E)-3-Oxo-2-(2-(3,4,5-trimethoxyphenyl)hydrazinylidene)butanoate]",78 to 80,110,–,–,–,–,–
"CC(=O)/C(=N/Nc1ccccc1)C(N)=O [Compound 7a, (2Z)-3-Oxo-2-(2-phenylhydrazinylidene)butanamide]",134 to 136,120,42.8 ± 1.1,45.9 ± 2.1,48.2 ± 2.9,42.1 ± 1.8,–
"CCOC(=O)/C(=N\Nc1ccc([N+](=O)[O-])cc1)C(C)=O [Compound 1d, Ethyl (2Z)-3-Oxo-2(2-(4-nitrophenyl)hydrazinylidene)butanoate]",120 to 122,100,–,–,–,–,–
"CCOC(=O)/C(=N/Nc1cccc(Cl)c1)C(C)=O [Compound 1c, Ethyl (2E)-3-Oxo-2(2-(3-chlorophenyl)hydrazinylidene)butanoate]",70 to 72,> 500,–,–,–,–,–
"CN(C)CCC(=O)c1ccc(Cl)c(Cl)c1 [DPDAP, 1-(3,4-dichlorophenyl)-3-dimethylamino-1-propanone, reference compound]",–,10,–,–,–,–,–
"COc1cc(N/N=C(/C(C)=O)C(=O)O)cc(OC)c1OC [Compound 5e, (2Z)-3-Oxo-2-(2-(3,4,5-trimethoxyphenyl)hydrazinylidene)butanoic acid]",150 to 152,92,48.2 ± 0.9,27.1 ± 1.2,34.8 ± 1.3,28.8 ± 2.9,–
"CC(=O)/C(=N/Nc1ccc([N+](=O)[O-])cc1)C(=O)O [Compound 5d, (2Z)-3-Oxo-2-(2-(4-nitrophenyl)hydrazinylidene)butanoic acid]",–,57,53.6 ± 1.8,48.6 ± 1.6,73.7 ± 0.8,45.3 ± 1.7,–
